Data on 52 molecules can be found in US9790169B2, “IDO inhibitors” (BRISTOL-MYERS SQUIBB COMPANY, priority 2015, dated 2017).

The target in this assay is human IDO1 (Homo sapiens, UniProt P14902). Kind of assay: Assessment of human IDO-1 inhibitory activity in HEK cells (human IDO1/HEK293 cells, kynurenine read-out with Ehrlich reagent, absorbance 490 nm). The following applies: HEK Human IDO-1 cellular assay. The arrangement: expressed in transfected cells. In kind it is cell-based. Put shortly: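 Kynurenine output from stably IDO1-transfected HEK293 cells (10,000/well, phenol red-free RPMI, 10% FBS) after 20 h compound exposure at 37 °C. The reaction was stopped with 0.2% TCA and heated 30 min at 50 °C, then the supernatant was mixed with Ehrlich reagent and read at 490 nm. IC50 was set against DMSO and a 500 nM reference standard as 0 and 100% inhibition.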
human IDO1, sequence (P14902 whole entry): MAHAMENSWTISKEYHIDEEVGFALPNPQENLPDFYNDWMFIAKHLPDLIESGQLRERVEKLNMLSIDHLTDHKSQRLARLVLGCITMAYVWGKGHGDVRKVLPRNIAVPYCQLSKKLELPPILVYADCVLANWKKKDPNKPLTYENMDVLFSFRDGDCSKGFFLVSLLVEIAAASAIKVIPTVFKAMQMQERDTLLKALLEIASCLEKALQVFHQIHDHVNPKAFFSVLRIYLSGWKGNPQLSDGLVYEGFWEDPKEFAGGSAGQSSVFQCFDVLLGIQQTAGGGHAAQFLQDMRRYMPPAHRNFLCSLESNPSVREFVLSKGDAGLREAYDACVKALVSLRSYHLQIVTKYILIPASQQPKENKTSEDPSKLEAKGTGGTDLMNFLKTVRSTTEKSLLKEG

What is called IC50 is the concentration needed to halve the response being measured. Take `CCOc1ncc(Nc2cc(C(CC)CC(=O)O)ccc2N2C[C@@H](C)O[C@@H](C)C2)cn1` (single isomer, unassigned) [Example 756]: the 50% inhibitory concentration (IC50) is over 50 nM.

`CCC(CC(=O)O)c1ccc(N2C[C@@H](C)O[C@@H](C)C2)c(Nc2ccc3c(c2)OC(F)(F)O3)c1` (single isomer, unassigned) [Example 758]: the IC50 is over 50 nM.

As to `CC[C@H](CC(=O)O)c1ccc(N2C[C@@H](C)O[C@@H](C)C2)c(NC(=O)Nc2ccc(C)cc2)c1` (single isomer, unassigned) [Example 760], the half-inhibitory concentration (IC50) was over 50 nM.

Take `CC[C@H](CC(=O)O)c1ccc(N2C[C@@H](C)O[C@@H](C)C2)c(Nc2ccc(Cl)cc2)c1` (single isomer, unassigned) [Example 761]: the IC50 was under 50 nM.

In the case of `CCC(CC(=O)O)c1ccc(N2C[C@@H](C)O[C@@H](C)C2)c(Nc2ccc(C#N)cc2)c1` (single isomer, unassigned) [Example 764], the IC50 was under 50 nM.

As to `CCC(CC(=O)O)c1ccc(N2C[C@@H](C)O[C@@H](C)C2)c(Nc2ccc3c(c2)OC(F)(F)O3)c1` (single isomer, unassigned) [Example 765], the concentration for half-maximal inhibition (IC50) is under 50 nM.

Turning to `CC[C@H](CC(=O)O)c1ccc(N2CCC[C@H]2C(C)(C)O)c(NC(=O)Nc2ccc(C)cc2)c1` (single isomer, unassigned) [Example 767], the 50% inhibitory concentration (IC50) was over 50 nM.

As to `CC[C@@H](CC(=O)O)c1ccc(N2CCC[C@H]2C(C)(C)O)c(NC(=O)Nc2ccc(C)cc2)c1` (single isomer, unassigned) [Example 769], the IC50 was over 50 nM.

As for `CC[C@@H](CC(=O)O)c1ccc(N2CCC[C@@H]2C(C)(C)O)c(Nc2ccc(C#N)cc2)c1` (single isomer, unassigned) [Example 771], the 50% inhibitory concentration (IC50) was under 50 nM.

Regarding `CCC(CC(=O)O)c1ccc(N2CCC[C@@H]2C(C)(C)O)c(Nc2ccc(Cl)cc2)c1` (single isomer, unassigned) [Example 773], the IC50 was under 50 nM.

For the molecule `CC[C@H](CC(=O)O)c1ccc(N2CCC[C@@H]2C(C)(C)O)c(NC(=O)Nc2ccc(C)cc2)c1` (single isomer, unassigned) [Example 774], the IC50 is over 50 nM.

With `CC[C@H](CC(=O)O)c1ccc(N2CCC[C@@H]2C(C)(C)O)c(Nc2ccc(Cl)cc2)c1` (single isomer, unassigned) [Example 780], the concentration for half-maximal inhibition (IC50) was under 5 nM.

As for `CCC(CC(=O)O)c1ccc(N2CCC[C@@H]2C(C)(C)O)c(Nc2ccc3c(c2)OC(F)(F)O3)c1` (single isomer, unassigned) [Example 781], the IC50 was over 50 nM.

Regarding `CCC(CC(=O)O)c1ccc(N2CCC[C@@H]2C(C)(C)O)c(Nc2ccc(C#N)cc2)c1` (single isomer, unassigned) [Example 782], the half-inhibitory concentration (IC50) was under 50 nM.

In the case of `CCC(CC(=O)O)c1ccc(N2CCC[C@@H]2C(C)(C)O)c(Nc2ccc(Cl)cc2)c1` (single isomer, unassigned) [Example 783], the IC50 is under 5 nM.

Take `CCC(CC(=O)O)c1ccc(N2CCC[C@@H]2C(C)(C)O)c(Nc2ccc(F)cc2)c1` (single isomer, unassigned) [Example 784]: the IC50 is over 50 nM.

`CC[C@@H](CC(=O)O)c1ccc(N2CCC[C@H]2C(C)(C)F)c(NC(=O)Nc2ccc(C)cc2)c1` (single isomer, unassigned) [Example 785]: the concentration for half-maximal inhibition (IC50) was over 50 nM.

As for `CCC(CC(=O)O)c1ccc(N2CCC[C@H]2C(C)(C)F)c(NC(=O)Nc2ccc(Cl)cc2F)c1` (single isomer, unassigned) [Example 786], the 50% inhibitory concentration (IC50) is over 50 nM.

Consider `CC[C@@H](CC(=O)O)c1ccc(N2CCC[C@H]2C(C)(C)F)c(Nc2ccc(Cl)cc2)c1` (single isomer, unassigned) [Example 788], for which the IC50 was under 5 nM.

Consider `CCC(CC(=O)O)c1ccc(N2CCC[C@H]2C(C)(C)F)c(Nc2ccc3nc(C)sc3c2)c1` (single isomer, unassigned) [Example 789], for which the IC50 was over 50 nM.

As for `CCC(CC(=O)O)c1ccc(N2CCC[C@H]2C(C)(C)F)c(Nc2ccc3c(c2)OC(F)(F)O3)c1` (single isomer, unassigned) [Example 790], the half-maximal inhibitory concentration (IC50) was under 50 nM.

As to `CC[C@H](CC(=O)O)c1ccc(N2CCC[C@H]2C(C)(C)F)c(NC(=O)Nc2ccc(Cl)cc2F)c1` (single isomer, unassigned) [Example 791], the IC50 was under 50 nM.

Turning to `CCC(CC(=O)O)c1ccc(N2CCC[C@H]2C(C)(C)F)c(NC(=O)Nc2ccc(C)cc2)c1` (single isomer, unassigned) [Example 792], the concentration for half-maximal inhibition (IC50) was over 50 nM.

As to `CCC(CC(=O)O)c1ccc(N2CCC[C@H]2C(C)(C)F)c(Nc2ccc3nc(C)sc3c2)c1` (single isomer, unassigned) [Example 794], the IC50 was under 50 nM.

For `CCC(CC(=O)O)c1ccc(N2CCC[C@H]2C(C)(C)F)c(Nc2ccc3c(c2)OC(F)(F)O3)c1` (single isomer, unassigned) [Example 796], the IC50 was over 50 nM.

On to `CC(CC(=O)O)c1ccc(N2CCC[C@H]2C(C)(C)O)c(Nc2ccc(C#N)cc2)c1` (single isomer, unassigned) [Example 797], for which the half-maximal inhibitory concentration (IC50) is over 50 nM.

Take `CC(CC(=O)O)c1ccc(N2CCC[C@H]2C(C)(C)O)c(Nc2ccc(F)cc2)c1` (single isomer, unassigned) [Example 798]: the concentration for half-maximal inhibition (IC50) is over 50 nM.

In the case of `CC(CC(=O)O)c1ccc(N2CCC[C@H]2C(C)(C)O)c(Nc2ccc(Cl)cc2)c1` (single isomer, unassigned) [Example 799], the IC50 was over 50 nM.

`CCOc1ncc(Nc2cc(C(C)CC(=O)O)ccc2N2CCC[C@H]2C(C)(C)O)cn1` (single isomer, unassigned) [Example 800]: the IC50 is over 50 nM.

For `COc1ncc(Nc2cc(C(C)CC(=O)O)ccc2N2CCC[C@H]2C(C)(C)O)cn1` (single isomer, unassigned) [Example 801], the IC50 is over 50 nM.

With `CC(CC(=O)O)c1ccc(N2CCC[C@H]2C(C)(C)O)c(Nc2ccc(Cl)cc2)c1` (single isomer, unassigned) [Example 804], the IC50 is under 50 nM.

Take `CCOc1ccc(NC(=O)Nc2cc([C@H](CC)CC(=O)O)ccc2N2CCC[C@H]2C(C)(C)O)cc1` (single isomer, unassigned) [Example 810]: the IC50 was over 50 nM.

Take `CCC(CC(=O)O)c1ccc(N2CCC[C@H]2C(C)(C)O)c(NC(=O)Nc2ccc(OC)cc2)c1` (single isomer, unassigned) [Example 811]: the IC50 was over 50 nM.

`CCC(CC(=O)O)c1ccc(N2CCC[C@H]2C(C)(C)O)c(NC(=O)Nc2ccc(Cl)cc2F)c1` (single isomer, unassigned) [Example 812]: the IC50 was over 50 nM.

Take `CCC(CC(=O)O)c1ccc(N2CCC[C@H]2C(C)(C)O)c(NC(=O)Nc2ccc(F)cc2)c1` (single isomer, unassigned) [Example 813]: the half-maximal inhibitory concentration (IC50) was over 50 nM.

For `CCC(CC(=O)O)c1ccc(N2CCC[C@H]2C(C)(C)O)c(NC(=O)Nc2ccc(OC)cc2F)c1` (single isomer, unassigned) [Example 814], the IC50 is over 50 nM.

For `CCC(CC(=O)O)c1ccc(N2CCC[C@H]2C(C)(C)O)c(NC(=O)Nc2cc(C)on2)c1` (single isomer, unassigned) [Example 815], the half-maximal inhibitory concentration (IC50) is over 50 nM.

Take `CCOc1ccc(Nc2cc([C@H](CC)CC(=O)O)ccc2N2CCC[C@H]2C(C)(C)O)cc1` (single isomer, unassigned) [Example 816]: the IC50 is over 50 nM.

In the case of `CCC(CC(=O)O)c1ccc(N2CCC[C@H]2C(C)(C)O)c(Nc2ccnc(N3CCOCC3)n2)c1` (single isomer, unassigned) [Example 817], the IC50 is over 50 nM.

With `CCC(CC(=O)O)c1ccc(N2CCC[C@H]2C(C)(C)O)c(Nc2ccc(OCC3CC3)cc2)c1` (single isomer, unassigned) [Example 818], the concentration for half-maximal inhibition (IC50) was over 50 nM.

Turning to `CCc1ccc(Nc2cc(C(CC)CC(=O)O)ccc2N2CCC[C@H]2C(C)(C)O)cc1` (single isomer, unassigned) [Example 819], the concentration for half-maximal inhibition (IC50) is over 50 nM.

On to `CCC(CC(=O)O)c1ccc(N2CCC[C@H]2C(C)(C)O)c(Nc2ccc(Cl)cc2)c1` (single isomer, unassigned) [Example 820], for which the half-inhibitory concentration (IC50) is under 5 nM.

In the case of `CCC(CC(=O)O)c1ccc(N2CCC[C@H]2C(C)(C)O)c(Nc2ccc3c(c2)OC(F)(F)O3)c1` (single isomer, unassigned) [Example 821], the 50% inhibitory concentration (IC50) was under 50 nM.

Consider `CCC(CC(=O)O)c1ccc(N2CCC[C@H]2C(C)(C)O)c(Nc2cnc(OCC3CC3)nc2)c1` (single isomer, unassigned) [Example 822], for which the IC50 is over 50 nM.

Regarding `CCOc1ncc(Nc2cc(C(CC)CC(=O)O)ccc2N2CCC[C@H]2C(C)(C)O)cn1` (single isomer, unassigned) [Example 823], the IC50 was under 50 nM.

Turning to `CCC(CC(=O)O)c1ccc(N2CCC[C@H]2C(C)(C)O)c(Nc2cnc(OC)nc2)c1` (single isomer, unassigned) [Example 824], the half-maximal inhibitory concentration (IC50) is over 50 nM.

For `CCC(CC(=O)O)c1ccc(N2CCC[C@H]2C(C)(C)O)c(Nc2ccc(C#N)cc2)c1` (single isomer, unassigned) [Example 825], the IC50 is under 50 nM.

Consider `CCOc1ccc(NC(=O)Nc2cc(C(CC)CC(=O)O)ccc2N2CCC[C@H]2C(C)(C)O)cc1` (single isomer, unassigned) [Example 826], for which the IC50 is over 50 nM.

Consider `CCOc1ccc(Nc2cc(C(CC)CC(=O)O)ccc2N2CCC[C@H]2C(C)(C)O)cc1` (single isomer, unassigned) [Example 833], for which the 50% inhibitory concentration (IC50) was over 50 nM.

For the molecule `CCC(CC(=O)O)c1ccc(N2CCC[C@H]2C(C)(C)O)c(Nc2ccc(Cl)cc2)c1` (single isomer, unassigned) [Example 836], the IC50 was under 50 nM.

`CCC(CC(=O)O)c1ccc(N2CCC[C@H]2C(C)(C)O)c(Nc2ccc3c(c2)OC(F)(F)O3)c1` (single isomer, unassigned) [Example 837]: the half-inhibitory concentration (IC50) is over 50 nM.

Turning to `CCOc1ncc(Nc2cc(C(CC)CC(=O)O)ccc2N2CCC[C@H]2C(C)(C)O)cn1` (single isomer, unassigned) [Example 839], the IC50 was over 50 nM.
